According to US12698523B2, “Enhancement of nucleic acid polymerization by aromatic compounds” (priority 2019, dated 2026):

How the values were obtained:
[1] = target: T1, C4760 DNA polymerase (a variant of DPO4, SEQ ID NO:2) (Saccharolobus solfataricus, UniProt Q97W02, A155G/A42V/D156R/D292Y/D294N/E291S/E324K/E325K/E327K/E63R/E79L/G187P/G299W/I153V/I189F/I248T/I295S/K152A/K317Q/K321Q/K56Y/K78D/L293W/M76W/N188Y/P184Q/Q82W/Q83G/R300S/S297Y/S86E/T290K/T301W/V289W/V296Q); assay: Primer extension assay with the HIV2 100mer template; assay type: biochemical, Sulfolobus solfataricus; conditions: for polymerization of XNTPs into full length Xpandomer copies (PEM activity): HIV2 100mer template, Eco SSB, 30 minutes at 23° C.
T1 construct: made in house
T1 sequence (Q97W02 other isoform, or with tags, fused parts or gaps with the stated changes): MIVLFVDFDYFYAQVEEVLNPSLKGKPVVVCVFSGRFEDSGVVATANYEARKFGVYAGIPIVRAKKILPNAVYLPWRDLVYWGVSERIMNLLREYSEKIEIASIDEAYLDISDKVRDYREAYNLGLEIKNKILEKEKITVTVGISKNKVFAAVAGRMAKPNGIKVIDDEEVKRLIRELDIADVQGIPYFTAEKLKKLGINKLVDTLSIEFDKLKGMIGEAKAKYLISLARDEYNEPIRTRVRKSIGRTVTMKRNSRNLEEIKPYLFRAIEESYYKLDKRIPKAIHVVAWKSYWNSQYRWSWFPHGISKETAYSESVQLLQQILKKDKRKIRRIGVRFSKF
Experimental: PEM activity of compound 12 was tested in primer extension assays using the HIV2 100mer template. Primer extension reactions included the following reagents: 50 Mm TrisCl, 200 Mm NH4Oac, 20% PEG8K, 5% NMS, 0.6 nmol PP-60.20, 0.6 Mm MnCl2, 2.75 μg/μl Eco single-strand binding protein (SSB), 1 M urea, 50 pmol each XNTP, 1.1 pmol template, 1 pmol oligonucleotide primer, 1.2 μg/μl purified recombinant C4760 DNA polymerase (SEQ ID NO:2), and 0.5, 1, or 1.5 Mm PEM. 10 μL primer extension reactions were run for 30 minutes at 23° C. and reaction products were analyzed by gel electrophoresis. […] Lanes 2-4 show primer extension products from reactions with a structurally related additive lacking robust PEM activity.
PEM activity of compounds 13 and 14 was tested in primer extension assays using the HIV2 100mer template. Primer extension reactions included the following reagents: 50 Mm TrisCl, 200 Mm NH4Oac, 20% PEG8K, 5% NMS, 0.6 nmol PP-60.20, 0.6 Mm MnCl2, 2.75 μg/μl Eco single-strand binding protein (SSB), 1 M urea, 50 pmol each XNTP, 1.1 pmol template, 1 pmol oligonucleotide primer, 1.2 μg/μl purified recombinant C4760 DNA polymerase (a variant of DPO4, see SEQ ID NO:2), and 0.5, 1, 1.52, or 2.5 Mm PEM. 10 μL primer extension reactions were run for 30 minutes at 23° C. and reaction products were analyzed by gel electrophoresis. A representative gel showing primer extension products is presented in FIG. 11 (the position of the full length HIV2 100mer is indicated by the arrow).
PEM activity of compounds 16, 17, and 18 and combinations thereof were tested in primer extension assays using the HIV2-derived 100mer template. Primer extension reactions included the following reagents: 50 Mm TrisCl, 200 Mm NH4Oac, 20% or 25% PEG8K, 5% NMS, 0.6 nmol PP-60.20, 0.6 Mm MnCl2, 2 μg Kod single-strand binding protein (SSB), 1 M urea, 50 pmol each XNTP, 1 pmol template, 1 pmol oligonucleotide primer, 1.2 μg purified recombinant C4760 DNA polymerase (a variant of DPO4, see SEQ ID NO:2), and 0.5-2 Mm PEM. 10 μL primer extension reactions were run for 30 minutes at 37° C. and reaction products were analyzed by gel electrophoresis. A representative gel showing primer extension products is presented in FIG. 13 (the position of a 100mer product is indicated by the arrow).

[2] = target: T1, C4760 DNA polymerase (a variant of DPO4, SEQ ID NO:2); assay: Primer extension on a 45mer RNA template derived from the HIV2 genome sequence; assay type: biochemical, Sulfolobus solfataricus; conditions: 2 Mm PEM; 45mer RNA template from HIV2 genome; 30 minutes at 37° C.
Experimental: To begin to investigate the potential of PEMs to enhance diverse polymerase reactions, the ability of PEMS to enable DNA polymerase to utilize RNA as a template was tested. An initial screen of several compounds set forth in Table I was conducted using a 45mer RNA template derived from the HIV2 genome sequence. Primer extension reactions included the following reagents: 50 Mm TrisCl, 200 Mm NH4Oac, 20% PEG8K, 5% NMS, 0.6 nmol PP-60.20, 0.6 Mm MnCl2, 2 μg Kod single-strand binding protein (SSB), 1 M urea, 50 pmol each XNTP, 0.5 pmol template, 0.5 pmol oligonucleotide primer, 1.2 μg purified recombinant C4760 DNA polymerase (a variant of DPO4, see SEQ ID NO:2), and 2 Mm PEM. 10 μL primer extension reactions were run for 30 minutes at 37° C. and reaction products were analyzed by gel electrophoresis.

[3] = 0.5, 1, 1.52, or 2.5 Mm PEM, FIG. 11

Structure (SMILES): N#Cc1cc(-c2cn(-c3ccc(O)c(C(=O)O)c3)nn2)nc(-c2cn(-c3ccc(O)c(C(=O)O)c3)nn2)c1 [Compound 12, 5,5′-((4-cyanopyridine-2,6-diyl)bis(1H-1,2,3-triazole-4,1-diyl))bis(2-hydroxybenzoic acid)]
- polymerization of XNTPs into full length Xpandomer copies (PEM activity) ([1]; 0.5, 1, or 1.5 Mm PEM, FIG. 10): enables polymerization of XNTPs into full length Xpandomer copies of the 100mer template

Structure (SMILES): Cc1cc(-c2cn(-c3ccc(C(=O)O)c(O)c3)nn2)nc(-c2cn(-c3ccc(C(=O)O)c(O)c3)nn2)c1 [Compound 13, 4,4′-((4-methylpyridine-2,6-diyl)bis(1H-1,2,3-triazole-4,1-diyl))bis(2-hydroxybenzoic acid)]
- polymerization of XNTPs into full length Xpandomer copies (PEM activity) [1, 3]: enables polymerization of XNTPs into full length Xpandomer copies of the 100mer template in a manner comparable to that of compound 10

Structure (SMILES): CCOC(=O)c1cc(-c2cn(-c3ccc(C(=O)O)c(O)c3)nn2)nc(-c2cn(-c3ccc(C(=O)O)c(O)c3)nn2)c1 [Compound 14, 4,4′-((4-(ethoxycarbonyl)pyridine-2,6-diyl)bis(1H-1,2,3-triazole-4,1-diyl))bis(2-hydroxybenzoic acid)]
- polymerization of XNTPs into full length Xpandomer copies (PEM activity) [1, 3]: enables polymerization of XNTPs into full length Xpandomer copies of the 100mer template in a manner comparable to that of compound 10
- polymerization of XNTPs into lengthy Xpandomer copies, combination of PEMs ([1]; combination of 2 Mm compound 14 and 0.1 Mm or 0.3 Mm compound 17, HIV2-derived 100mer template, FIG. 13 lanes 7-9): also enabled polymerization of XNTPs into lengthy Xpandomer copies of the 100mer template

Structure (SMILES): COC(=O)c1cc(-c2cn(-c3ccc(C(=O)O)c(O)c3)nn2)nc(-c2cn(-c3ccc(C(=O)O)c(O)c3)nn2)c1 [Compound 16, 4,4′-((4-(methoxycarbonyl)pyridine-2,6-diyl)bis(1H-1,2,3-triazole-4,1-diyl))bis(2-hydroxybenzoic acid)]
- polymerization of XNTPs into lengthy Xpandomer copies (PEM activity) ([1]; 2 Mm compound 16, 0.5, 1, 2, and 3 Mm compound 17, HIV2-derived 100mer template, Kod SSB, 30 minutes at 37° C., FIG. 13): enable polymerization of XNTPs into lengthy Xpandomer copies of the 100mer template in a manner comparable to that of compound 14
- polymerization of XNTPs into full length copies, combination of PEMs ([1]; combination of 2 Mm compound 16 and 0.1 Mm or 0.3 Mm compound 18, HIV2-derived 100mer template, FIG. 13 lanes 10-12): enable polymerization of XNTPS into full length copies of the 100mer template

Structure (SMILES): CCN(CC)C(=O)c1cc(-c2cn(-c3ccc(C(=O)O)c(O)c3)nn2)nc(-c2cn(-c3ccc(C(=O)O)c(O)c3)nn2)c1 [Compound 49, 4,4′-((4-(diethylcarbamoyl)pyridine-2,6-diyl)bis(1H-1,2,3-triazole-4,1-diyl))bis(2-hydroxybenzoic acid)]
- PEM activity on an RNA template [2]: display PEM activity on an RNA template

Structure (SMILES): O=C(O)c1ccc(-n2cc(-c3cc(C(=O)N4CCOCC4)cc(-c4cn(-c5ccc(C(=O)O)c(O)c5)nn4)n3)nn2)cc1O [Compound 51, 4,4′-((4-(morpholine-4-carbonyl)pyridine-2,6-diyl)bis(1H-1,2,3-triazole-4,1-diyl))bis(2-hydroxybenzoic acid)]
- PEM activity on an RNA template [2]: display PEM activity on an RNA template

Structure (SMILES): CCNC(=O)c1cc(-c2cn(-c3ccc(C(=O)O)c(C(F)(F)F)c3)nn2)nc(-c2cn(-c3ccc(C(=O)O)c(C(F)(F)F)c3)nn2)c1 [Compound 73, 4,4′-((4-(ethylcarbamoyl)pyridine-2,6-diyl)bis(1H-1,2,3-triazole-4,1-diyl))bis(2-(trifluoromethyl)benzoic acid)]
- PEM activity on an RNA template [2]: display PEM activity on an RNA template

Structure (SMILES): CCNC(=O)c1cc(-c2cn(-c3ccc(C(F)(F)F)c(C(=O)O)c3)nn2)nc(-c2cn(-c3ccc(C(F)(F)F)c(C(=O)O)c3)nn2)c1 [Compound 75, 5,5′-((4-(ethylcarbamoyl)pyridine-2,6-diyl)bis(1H-1,2,3-triazole-4,1-diyl))bis(2-(trifluoromethyl)benzoic acid)]
- PEM activity on an RNA template [2]: display PEM activity on an RNA template

Structure (SMILES): CCNC(=O)c1cc(-c2cn(-c3ccc(C(=O)O)c(F)c3)nn2)nc(-c2cn(-c3ccc(C(=O)O)c(F)c3)nn2)c1 [Compound 76, 4,4′-((4-(ethylcarbamoyl)pyridine-2,6-diyl)bis(1H-1,2,3-triazole-4,1-diyl))bis(2-fluorobenzoic acid)]
- PEM activity on an RNA template [2]: display PEM activity on an RNA template

Structure (SMILES): CCNC(=O)c1cc(-c2cn(-c3cc(C(=O)O)cc(C(F)(F)F)c3)nn2)nc(-c2cn(-c3cc(C(=O)O)cc(C(F)(F)F)c3)nn2)c1 [Compound 93, 5,5′-((4-(ethylcarbamoyl)pyridine-2,6-diyl)bis(1H-1,2,3-triazole-4,1-diyl))bis(3-(trifluoromethyl)benzoic acid)]
- PEM activity on an RNA template [2]: display PEM activity on an RNA template

Structure (SMILES): O=C(NCCO)c1cc(-c2cn(-c3ccc(C(=O)O)c(C(F)(F)F)c3)nn2)nc(-c2cn(-c3ccc(C(=O)O)c(C(F)(F)F)c3)nn2)c1 [Compound 105, 4,4′-((4-((2-hydroxyethyl)carbamoyl)pyridine-2,6-diyl)bis(1H-1,2,3-triazole-4,1-diyl))bis(2-(trifluoromethyl)benzoic acid)]
- PEM activity on an RNA template [2]: display PEM activity on an RNA template

Structure (SMILES): CCNC(=O)c1cc(-c2cn(-c3ccc(C(=O)O)c([N+](=O)[O-])c3)nn2)nc(-c2cn(-c3ccc(C(=O)O)c([N+](=O)[O-])c3)nn2)c1 [Compound 106, 4,4′-((4-(ethylcarbamoyl)pyridine-2,6-diyl)bis(1H-1,2,3-triazole-4,1-diyl))bis(2-nitrobenzoic acid)]
- PEM activity on an RNA template [2]: display PEM activity on an RNA template

Structure (SMILES): CCNC(=O)c1cc(-c2cn(-c3ccc(C(=O)NCC(=O)O)c(C(F)(F)F)c3)nn2)nc(-c2cn(-c3ccc(C(=O)NCC(=O)O)c(C(F)(F)F)c3)nn2)c1 [Compound 110, 2,2′-((4,4′-((4-(ethylcarbamoyl)pyridine-2,6-diyl)bis(1H-1,2,3-triazole-4,1-diyl))bis(2-(trifluoromethyl)benzoyl))bis(azanediyl))diacetic acid]
- PEM activity on an RNA template [2]: display PEM activity on an RNA template

Structure (SMILES): CCNC(=O)c1cc(-n2cc(-c3ccc(C(=O)O)c(C(F)(F)F)c3)nn2)cc(-n2cc(-c3ccc(C(=O)O)c(C(F)(F)F)c3)nn2)c1 [Compound 116, 4,4′-((5-(ethylcarbamoyl)-1,3-phenylene)bis(1H-1,2,3-triazole-1,4-diyl))bis(2-(trifluoromethyl)benzoic acid)]
- PEM activity on an RNA template [2]: display PEM activity on an RNA template

Structure (SMILES): O=C(O)c1ccc(-n2cc(-c3ccc(-c4cn(-c5ccc(C(=O)O)c(C(F)(F)F)c5)nn4)o3)nn2)cc1C(F)(F)F [Compound 118, 4,4′-(furan-2,5-diylbis(1H-1,2,3-triazole-4,1-diyl))bis(2-(trifluoromethyl)benzoic acid)]
- PEM activity on an RNA template [2]: display PEM activity on an RNA template
